Test results: patent US12421235B2, “Bridged tricyclic carbamoylpyridone compounds and uses thereof” (Gilead Sciences, Inc., priority 2020, dated 2025)

Assays:
[1] = system: pLai RLuc reporter virus in MT-4 cells; assay: HIV MT-4 serum shift antiviral reporter assay; type: cell-based; settings: Human immunodeficiency virus 1, MT4, 72 h, read-out: RLUC CCM
Method: Example 48: HIV MT-4 Serum Shift Antiviral Reporter Assay
To quantify the amount of protein binding to human serum, compounds were serially diluted (1:3) in DMSO and acoustically transferred onto 384-well assay plates via a Labcyte ECHO robot. Each plate contained up to 8 test compounds, including negative and positive controls, (DMSO, 5 μM AZT respectively). Assay plates were prepared in duplicate, and tested in either CCM (cell culture media) or HS/CCM (human serum/cell culture media). MT-4 cells were first pre-infected with pLai RLuc reporter virus for 2 h at 37° C., then further diluted in either CCM (RPMI media, 10% FBS, 1% P/S) or HS/CCM (RPMI media, 10% FBS, 50% HS, 1% P/S), and subsequently added to each plate using a Biotek Micro Flow dispenser. After a 72-h incubation in a humidified and temperature controlled incubator (37° C.), Renilla Glo (Promega) was added to all assay plates and chemiluminescence read using an Envision plate-reader. EC50 values were defined as the compound concentration that causes a 50% decrease in luminescence signal, and were calculated using a sigmoidal dose-response model to generate curve fits. To determine the amount of protein binding, EC50 fold shifts (or EC50 shifts) were calculated by dividing EC50 (HS/CCM)/EC50 (CCM). […]

[2] = system: HIV-1 (IIIB) in MT-4 cells; assay: HIV MT-4 antiviral assay; type: cell-based; settings: Human immunodeficiency virus 1, MT4, 120 h, 5 days, Cell Titer Glo
Method: Example 47: HIV MT-4 Antiviral and Cytotoxicity Assay
Antiviral Assay in MT-4 Cells
(§1) Compounds were tested in a high-throughput 384-well assay format for their ability to inhibit the replication of HIV-1 (IIIB) in MT-4 cells. Compounds were serially diluted (1:3) in DMSO on 384-well polypropylene plates and further diluted 200-fold into complete RPMI media (10% FBS, 1% P/S) using the Biotek Micro Flow and Labcyte ECHO acoustic dispenser. Each plate contained up to 8 test compounds, with negative (No Drug Control) and 5 μM AZT positive controls. MT-4 cells were pre-infected with 10 μL of either RPMI (mock-infected) or a fresh 1:250 dilution of HIV-1 IIIB concentrated virus stock. Infected and uninfected MT-4 cells were further diluted in complete RPMI media and added to each plate using a Micro Flow dispenser. After 5 days incubation in a humidified and temperature controlled incubator (37° C.), Cell Titer Glo (Promega) was added to the assay plates and chemiluminescence read using an Envision plate-reader. EC50 values were defined as the compound concentration that causes a 50% decrease in luminescence signal, and were calculated using a sigmoidal dose-response model to generate curve fits.

[3] = High throughput microsomal stability assay (human liver microsomes); type: in vitro ADME; settings: for HLM stability: human liver microsomes, 1 uM compound, NADPH + UDPGA cofactors, 37 C
Method: Example 49: High Throughput Microsomal Stability Assay
Metabolic stability of compounds was assessed using Human, or Rat Liver Microsomal assays (Corning). In this assay, 10 nL compounds at concentration of 1 mM in 100% DMSO were dispensed into 384-well polypropylene plates using the Echo 550 acoustic liquid dispenser (Labcyte®). Each plate contained 384 wells with a single test compound in each well.
A solution of human (Corning® Gentest™ Human Mixed Pooled Microsomes), or rat (Corning® Gentest™ Rat [Sprague-Dawley] Pooled Liver Microsomes) liver microsomes at 2 mg/ml in 100 mM K2HPO4/KH2PO4 pH 7.4 with Alamethicin from Trichoderma viride (Sigma-Aldrich) 0.0225 mg/ml were incubated on ice for 15 minutes. 5 uL of this solution was added to individual wells following 15 minute incubation at room temperature; and supplemented with 5 uL NADPH Regenerating Solution of cofactors (Corning® Gentest™ UGT Reaction Mix) containing 100 mM K2HPO4/KH2PO4 pH 7.4, 2.6 mM NADP+, 6.6 mM glucose-6-phosphate, 6.6 mM MgCl2, 0.8 U/mL glucose-6-phosphate dehydrogenase, 0.1 mM Sodium Citrate, 6.8 mM uridine diphosphate-glucuronic acid. Final concentration of analyte compounds at the beginning of the reaction was 1 uM. The reactions were incubated at 37° C. and time points of 0, 5, 15, 30, 40, 50, 60, and 70 minutes were collected for further analysis. Background data were collected using reactions without analyte compounds.
Upon collection of the reaction time points, samples were quenched with 30 uL of a solution of 72% acetonitrile, 8% methanol, 0.1% formic acid, 19.9% water, and internal standard (IS). Reaction plates were span in a centrifuge at speed of 4,000 rcf for 30 minutes and 4° C., following a dilution of the 10 uL quenched reaction into 40 uL de-ionized water, yielding assay plates.
Assay plates were analyzed using solid-state extraction coupled with quadrupole time-of-flight mass spectrometer, using Agilent QToF 6530 RapidFire 360 system, with C4 type A solid state cartridges. Analysis was performed in either positive or negative ionization modes. Mobile phases contained 0.1% formic acid in water for loading analytes onto solid state extraction cartridges, and 0.1% formic acid in acetonitrile for elution into mass spectrometer in positive ionization mode, or 0.1% acetic acid in water for loading and 0.1% acetic acid in acetonitrile for extraction in negative ionization mode. Peak-area ratios of integrated counts for individual compounds to IS were plotted as semi-logarithmic chart of log vs time. Initial, linear portion of decay was fitted to a linear regression equation to derive half time of a compound decay.
Pharmacological parameters for an analyte compound metabolism were calculated using the following equations: […]
Where. Calculation of In Vitro Intrinsic Clearance
Concentration refers to the protein concentration (mg/mL) in the reaction.
Calculation of In Vivo Intrinsic Clearance
This scales the in vitro intrinsic clearance up to the value that would be predicted for the entire mass of liver tissue (but with no restriction by blood flow). The value depends upon the size of the liver (species-dependent) and the yield of microsomal protein as appropriate (assumed to be species-independent).
Calculation of Predicted Clearance
Hepatic clearance will depend upon the inter-relationship of intrinsic clearance and hepatic blood flow and can be predicted from in vitro data using a variety of approaches.
Calculation of Hepatic Extraction
This is simply the predicted clearance expressed as a proportion of hepatic blood flow. E=CL/QH*100%
Intrinsic clearance of the instant compounds, as well as for reference compounds A-F, were calculated following the procedure above.

[4] = Cytotoxicity assay in MT-4 cells; type: cell-based; settings: human, uninfected MT-4 cells, Cell Titer Glo
Method: as §1, with “fits. Cytotoxicity Assay in MT-4 Cells Assays were performed as above except uninfected MT-4 cells were added to each well containing test compound. In addition, 10 μM puromycin was added to the last column of each assay plate to assess a base level of cytotoxicity.” for “fits.”

C[C@H]1CC[C@@](C)(O)[C@H]2CN1C(=O)c1c(O)c(=O)c(C(=O)NCc3c(F)cc(F)cc3F)cn12 (single isomer, unassigned) [Example 32]
EC50 [1]: 0.43 nM
EC50 [2]: 1.9 nM
HLM stability [3]: 9 mL/min/kg
CC50 at 5 days [4]: 34600 nM

CO[C@@]1(C)CC[C@H](C)N2C[C@H]1n1cc(C(=O)NCc3c(F)cc(F)cc3F)c(=O)c(O)c1C2=O [Example 23, (3S,6S,7R)-12-hydroxy-6-methoxy-3,6-dimethyl-1,11-dioxo-N-(2,4,6-trifluorobenzyl)-1,4,5,6,7,11-hexahydro-3H-2,7-methanopyrido[1,2-a][1,4]diazonine-10-carboxamide]
EC50 [1]: 0.47 nM
EC50 [2]: 2.2 nM
HLM stability [3]: 12 mL/min/kg
CC50 at 5 days [4]: 9790 nM

C[C@H]1C=C[C@](C)(O)[C@H]2CN1C(=O)c1c(O)c(=O)c(C(=O)NCc3c(F)cc(F)cc3F)cn12 [Example 15, (1R,10S,13S)-6,13-dihydroxy-10,13-dimethyl-5,8-dioxo-N-[(2,4,6-trifluorophenyl)methyl]-2,9-diazatricyclo[7.4.1.02,7]tetradeca-3,6,11-triene-4-carboxamide]
EC50 [1]: 1.64 nM
EC50 [2]: 7.9 nM
HLM stability [3]: 3.17 mL/min/kg
CC50 at 5 days [4]: 28400 nM

CC[C@]1(O)CC[C@H](C)N2C[C@H]1n1cc(C(=O)NCc3c(F)cc(F)cc3F)c(=O)c(O)c1C2=O [Example 28, (3S,6S,7R)-6-ethyl-6,12-dihydroxy-3-methyl-1,11-dioxo-N-(2,4,6-trifluorobenzyl)-1,4,5,6,7,11-hexahydro-3H-2,7-methanopyrido[1,2-a][1,4]diazonine-10-carboxamide]
EC50 [1]: 0.96 nM
EC50 [2]: 4.1 nM
HLM stability [3]: 5.67 mL/min/kg
CC50 at 5 days [4]: 24400 nM

C[C@H]1CC[C@H](O)[C@H]2CN1C(=O)c1c(O)c(=O)c(C(=O)NCc3ccc(F)cc3F)cn12 [Example 16, (3S,6S,7R)—N-(2,4-difluorobenzyl)-6,12-dihydroxy-3-methyl-1,11-dioxo-1,4,5,6,7,11-hexahydro-3H-2,7-methanopyrido[1,2-a][1,4]diazonine-10-carboxamide]
EC50 [1]: 1.14 nM
EC50 [2]: 2.6 nM
HLM stability [3]: 1.83 mL/min/kg
CC50 at 5 days [4]: 41400 nM

C[C@H]1CC[C@@H](O)[C@H]2CN1C(=O)c1c(O)c(=O)c(C(=O)NCc3c(F)cc(F)cc3F)cn12 [Example 5, (3S,6R,7R)-6,12-dihydroxy-3-methyl-1,11-dioxo-N-(2,4,6-trifluorobenzyl)-1,4,5,6,7,11-hexahydro-3H-2,7-methanopyrido[1,2-a][1,4]diazonine-10-carboxamide]
EC50 [1]: 0.71 nM
EC50 [2]: 1.8 nM
HLM stability [3]: 3.33 mL/min/kg
CC50 at 5 days [4]: 50000 nM

C[C@H]1[C@H]2CO[C@H](C2)[C@H]2CN1C(=O)c1c(O)c(=O)c(C(=O)NCc3ccc(F)cc3F)cn12 [Example 45, (3S,4S,7R,8R)—N-(2,4-difluorobenzyl)-13-hydroxy-3-methyl-1,12-dioxo-1,4,5,7,8,12-hexahydro-3H-2,8:4,7-dimethanopyrido[1,2-d][1,4,7]oxadiazecine-11-carboxamide]
EC50 [1]: 0.46 nM
EC50 [2]: 1.9 nM
HLM stability [3]: 2.83 mL/min/kg
CC50 at 5 days [4]: 12400 nM

CO[C@H]1C=C[C@H](C)N2C[C@H]1n1cc(C(=O)NCc3ccc(F)c(Cl)c3F)c(=O)c(O)c1C2=O [Example 9, (3S,6S,7R)—N-(3-chloro-2,4-difluorobenzyl)-12-hydroxy-6-methoxy-3-methyl-1,11-dioxo-1,6,7,11-tetrahydro-3H-2,7-methanopyrido[1,2-a][1,4]diazonine-10-carboxamide]
EC50 [1]: 0.42 nM
EC50 [2]: 1 nM
HLM stability [3]: 8 mL/min/kg
CC50 at 5 days [4]: 4270 nM

C[C@H]1CC[C@](C)(O)[C@H]2CN1C(=O)c1c(O)c(=O)c(C(=O)NCc3ccc(F)cc3F)cn12 (single isomer, unassigned) [Example 12]
EC50 [1]: 0.61 nM
EC50 [2]: 1.4 nM
HLM stability [3]: 2.5 mL/min/kg
MS Cl improvement ([3]; relative to compound F): 3.3 times relative to compound F
CC50 at 5 days [4]: 41300 nM

C[C@H]1CC[C@H](OC(F)F)[C@H]2CN1C(=O)c1c(O)c(=O)c(C(=O)NCc3c(F)cc(F)cc3F)cn12 [Example 27, (3S,6S,7R)-6-(difluoromethoxy)-12-hydroxy-3-methyl-1,11-dioxo-N-(2,4,6-trifluorobenzyl)-1,4,5,6,7,11-hexahydro-3H-2,7-methanopyrido[1,2-a][1,4]diazonine-10-carboxamide]
EC50 [1]: 0.35 nM
EC50 [2]: 1.1 nM
HLM stability [3]: 14.7 mL/min/kg
CC50 at 5 days [4]: 13600 nM
